In patent US12357536B2, “Containers with selective dissolved gas content” (BAXTER INTERNATIONAL INC., priority 2021, dated 2025):

Columns and labels:
[1] = Stability of a trace element mix in glass bottle, 6 months at 5° C. or 40° C. (Table V); details: for Concentration recovered, T6M 5° C. / Percentage of the recovered TE, T6M 5° C. / Concentration recovered, T6M 40° C. / Percentage of the recovered TE, T6M 40° C.: TE mix, pH 2.2, 200 mM malic acid, glass bottle (about 3 ppm DO), heat sterilized; for Concentration recovered, T6M 5° C. / Percentage of the recovered TE, T6M 5° C.: 6 months at 5° C.; for Percentage of the recovered TE, T6M 5° C. / Percentage of the recovered TE, T6M 40° C.: vs theoretical concentration; for Concentration recovered, T6M 40° C. / Percentage of the recovered TE, T6M 40° C.: 6 months at 40° C.
Protocol: The solution was heat sterilized and stored 6 months at 40° C. or 5° C.(T6M 40° C. and T6M 5° C., respectively).

[2] = Regression between Se assay and log dissolved oxygen (Example 7, FIG. 13); format: physicochemical; details: fitted line Se dosage vs log oxygen content; sterilized samples stored at 40° C.
Protocol: The impact of oxygen seems of major importance in the stability of Selenite. […] To confirm this hypothesis, a regression test was performed between Se assay results and log(dissolved oxygen results). Only sterilized samples stored at 40° C. were considered as the sterilization and storage at high temperature seem to both increase the Se degradation.
Dissolved oxygen content is so the most impacting parameter and CQA (Critical Quality Attribute) in the stability of Selenium. As shown in the Figure, low oxygen amounts of around 0.5 ppm can be sufficient to ensure the stability of Selenite in solution, no saturation would be required.

Row | SMILES | Concentration recovered, T6M 5° C. [1] [ng/mL] | Percentage of the recovered TE, T6M 5° C. [1] [%] | Concentration recovered, T6M 40° C. [1] [ng/mL] | Percentage of the recovered TE, T6M 40° C. [1] [%] | Oxygen amount sufficient to ensure the stability of Selenite in solution [2] | Stability of selenite ([1]; in the presence of few ppm of dissolved oxygen)
1 | [Cr] [Cr, chromium] | 306 | 77.3 | 329 | 83.1 |  | 
2 | [Cu] [Cu, copper] | 9784 | 81.1 | 10504 | 87.1 |  | 
3 | F [F, fluoride] |  | 94 |  | 88 |  | 
4 | I [I, iodide] | 3167 | 78.6 | 3401 | 84.4 |  | 
5 | [Mo] [Mo, molybdenum] | 653 | 79.9 | 707 | 86.6 |  | 
6 | [Se] [Se, selenium] | 2446 | 87.2 | 2461 | 87.7 |  | 
7 | [Zn] [Zn, zinc] | 158347 | 77.8 | 171822 | 84.4 |  | 
8 | O=[Se](O)O [selenite, sodium selenite] |  |  |  |  | around 0.5 ppm | stable
